{"source": "patent US12419824B2", "about": "“Compounds useful for the treatment and/or care of the skin, hair, nails and/or mucous membranes” (Lubrizol Advanced Materials, Inc., priority 2019, dated 2025)", "data": [{"system": "Muscle bind like protein 1 (MBNL1)", "test": "MBNL1 quantification by TR-FRET in hSkMc from TEBU-BIO (Example 20)", "assay_type": "cell-based, human", "details": "0.5 mg/ml, versus basal control", "method": "(§1) hSkMc (Innoprot) are seeded in 12-well plates at a density of 1.5×10^4 cells/well in Skeletal Muscle Cell Growth Medium (Promocell). After 72 hours incubation, medium is removed and replaced with Skeletal Muscle Cell Differentiation Medium (Promocell). 48 hours after beginning cell differentiation, fresh differentiation medium with 0.5 mg/ml of test items is added. Treatment is continued for 48 hours and non-treated cells are used as basal control. After 48 hours of treatment, cell medium is removed and added cell lysis buffer to wells. Immediately, plates are kept at −80° C. in order to improve protein extraction during the defrosting process. After 72 hours, cells are lysated by shaking the plates in an orbital rotor at room temperature for 45 minutes. Next, cell lysates are collected and assayed to quantify the level of MBNL1 protein and total protein concentration.\n(§2) MBNL1 protein levels measurement is performed with Human MBNL1 Assay Kit (Cisbio) according to the manufacturer's protocol. Briefly, the kit is used to perform a TR-FRET for MBNL1 quantification. The protein is detected with the antibodies provided in the kit and quantified by a fluorescence measurement. The quantification is carried out by using a microplate reader (ClarioStar, BMG) set to 665 nm and 620 nm.\n(§3) Total protein concentration of cell lysate is determined by using Pierce BCA Protein Assay Kit™ (Thermo Scientific) according to manufacturer's protocol. In brief, after adding Working Reagent to the samples and the standards, the samples are incubated. Afterwards, color change is measured with an absorbance microplate reader (Clariostar™, BMG) at 562 nm. The total protein amount is used to normalize the level of MBNL1 protein concentration obtained by the TR-FRET test in the samples.\nThe assay is performed as disclosed in Example 7 except that hSkMc from TEBU-BIO (Barcelona, Spain) are used. Different peptides of the invention are tested at a concentration of 0.5 mg/ml.", "units": {"% MBNL1": "%"}, "values": [{"substance": "H-Ala-Leu-Lys-Pro-Gln-Thr-NH2 (H-ALKPQT-NH2) [PEP50]", "% MBNL1": 119.4}, {"substance": "H-Leu-Lys-Pro-Asn-Thr-NH2 (H-LKPNT-NH2) [PEP40]", "% MBNL1": 117.3}, {"substance": "H-Ala-Ile-Arg-Pro-Asn-Thr-NH2 (H-AIRPNT-NH2) [PEP44]", "% MBNL1": 240.6}, {"substance": "H-Ala-Leu-Lys-Pro-Asn-NH2 (H-ALKPN-NH2) [PEP41]", "% MBNL1": 138.4}, {"substance": "H-Ala-Leu-Lys-Val-Asn-Thr-NH2 (H-ALKVNT-NH2) [PEP31]", "% MBNL1": 120.0}, {"substance": "H-Gly-Ile-Lys-Pro-Asn-Thr-NH2 (H-GIKPNT-NH2) [PEP42]", "% MBNL1": 114.2}, {"substance": "H-Ala-Leu-Arg-Pro-Asn-Thr-NH2 (H-ALRPNT-NH2) [PEP30]", "% MBNL1": 181.3}, {"substance": "H-Gly-Val-Arg-Pro-Asn-Thr-NH2 (H-GVRPNT-NH2) [PEP46]", "% MBNL1": 182.1}, {"substance": "Ac-Ala-Leu-Lys-Pro-Asn-Thr-OH (Ac-ALKPNT-OH) [PEP27]", "% MBNL1": 126.1}]}, {"system": "Muscle bind like protein 1 (MBNL1)", "test": "MBNL1 quantification in human skeletal muscle cells by TR-FRET (Examples 7, 19)", "assay_type": "cell-based", "details": "hSkMc, 0.5 mg/mL, as Example 7, versus basal control", "method": "MBNL1 induction by the peptides of the invention is evaluated by a Time resolved fluorescence resonance energy transfer (TR-FRET) assay. The aim of this study is to investigate the capacity of peptide candidates to increase MBNL1 in human skeletal muscle cells (hSkMc).\nas §1, §2, §3\nDifferent peptides of the invention are tested as disclosed in Example 7 at 0.5 mg/mL.", "units": {"% MBNL1": "%"}, "values": [{"substance": "Ac-Asp-Ile-Tyr-Lys-NH2 (Ac-DIYK-NH2) [PEP8]", "% MBNL1": 190.4}, {"substance": "Ac-Glu-Val-Tyr-Lys-NH2 (Ac-EVYK-NH2) [PEP7]", "% MBNL1": 141.5}, {"substance": "Ac-Glu-Ile-Tyr-Arg-NH2 (Ac-EIYR-NH2) [PEP23]", "% MBNL1": 181.4}, {"substance": "Palm-Asp-Val-Tyr-Lys-NH2 (DVYK; HELM PEPTIDE1{[CCCCCCCCCCCCCCCC(=O)[*:2]].D.V.Y.K.[am]}$$$$V2.0; SMILES CCCCCCCCCCCCCCCC(=O)N[C@@H](CC(=O)O)C(=O)N[C@H](C(=O)N[C@@H](Cc1ccc(O)cc1)C(=O)N[C@@H](CCCCN)C(N)=O)C(C)C) [PEP3]", "% MBNL1": 127.7}, {"substance": "Ac-Glu-Ile-Tyr-Lys-NH2 (Ac-EIYK-NH2) [PEP20]", "% MBNL1": 214.2}, {"substance": "Palm-Glu-Val-Tyr-Lys-NH2 (EVYK; HELM PEPTIDE1{[CCCCCCCCCCCCCCCC(=O)[*:2]].E.V.Y.K.[am]}$$$$V2.0; SMILES CCCCCCCCCCCCCCCC(=O)N[C@@H](CCC(=O)O)C(=O)N[C@H](C(=O)N[C@@H](Cc1ccc(O)cc1)C(=O)N[C@@H](CCCCN)C(N)=O)C(C)C) [PEP13]", "% MBNL1": 147.2}, {"substance": "Ac-Asp-Val-Tyr-Lys-OH (Ac-DVYK-OH) [PEP4]", "% MBNL1": 378.5}, {"substance": "Ac-Asp-Val-Tyr-Lys-Ala-NH2 (Ac-DVYKA-NH2) [PEP15]", "% MBNL1": 145.2}, {"substance": "Ac-Glu-Ile-Phe-Arg-NH2 (Ac-EIFR-NH2) [PEP24]", "% MBNL1": 117.5}, {"substance": "Ac-Asp-Val-Tyr-Arg-NH2 (Ac-DVYR-NH2) [PEP10]", "% MBNL1": 158.3}, {"substance": "Ac-Ala-Asp-Val-Tyr-Lys-NH2 (Ac-ADVYK-NH2) [PEP14]", "% MBNL1": 145.0}, {"substance": "Ac-Asp-Leu-Tyr-Lys-NH2 (Ac-DLYK-NH2) [PEP12]", "% MBNL1": 154.4}, {"substance": "Ac-Asp-Val-Phe-Lys-NH2 (Ac-DVFK-NH2) [PEP9]", "% MBNL1": 134.2}, {"substance": "H-Asp-Val-Tyr-Lys-NH2 (H-DVYK-NH2) [PEP5]", "% MBNL1": 261.4}, {"substance": "Ac-Asn-Val-Tyr-Lys-NH2 (Ac-NVYK-NH2) [PEP11]", "% MBNL1": 145.2}]}]}
